Source: PubChem BioAssay (NCI)
Where “and” joins values, the source holds several entries; their conditions need not be identical. Equal values may be shown once.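 1) Cells in 96-well plates. 2) Compound, 48 h, 5 concentrations. 3) Linear interpolation between surrounding doses. 4) Unreached endpoint = highest concentration. GI50 marks 50% less growth. TGI marks complete inhibition of growth.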

How the values were obtained:
Assay in all cases: growth of human tumour cells (NCI), 48 h
SK-MEL-2 melanoma = test system: SK-MEL-2 melanoma
PC-3 prostate = test system: PC-3 prostate
KM12 colon = test system: KM12 colon
UACC-257 melanoma = test system: UACC-257 melanoma
M14 melanoma = test system: M14 melanoma
NCI/ADR-RES ovarian = test system: NCI/ADR-RES ovarian
OVCAR-5 ovarian = test system: OVCAR-5 ovarian
NCI-H226 lung = test system: NCI-H226 lung
CCRF-CEM leukemia = test system: CCRF-CEM leukemia
HCC-2998 colon = test system: HCC-2998 colon

Row | Compound | GI50 (SK-MEL-2 melanoma) [µM] | TGI (SK-MEL-2 melanoma) | GI50 (PC-3 prostate) | TGI (PC-3 prostate) [µM] | GI50 (KM12 colon) | TGI (KM12 colon) | GI50 (UACC-257 melanoma) [µM] | TGI (UACC-257 melanoma) | GI50 (M14 melanoma) [µM] | TGI (M14 melanoma) | GI50 (NCI/ADR-RES ovarian) | TGI (NCI/ADR-RES ovarian) | GI50 (OVCAR-5 ovarian) | TGI (OVCAR-5 ovarian) | GI50 (NCI-H226 lung) [µM] | TGI (NCI-H226 lung) | GI50 (CCRF-CEM leukemia) | TGI (CCRF-CEM leukemia) | GI50 (HCC-2998 colon) | TGI (HCC-2998 colon)
1 | C=C1C(=O)O[C@@H]2C[C@@H]1CC[C@]1(C)O[C@H]1CC[C@@]1(C)O[C@@H]1CC[C@@]2(C)O | 50.1 | > 100 µM | 21.2 µM | 94.9 | > 100 µM | > 100 µM | 61.9 | > 100 µM | 34.2 | > 100 µM | 20.1 µM | 46.9 µM | 29.2 µM | > 100 µM | 26.7 | 86.2 µM | 17.5 µM | 49.4 µM | 6.49 µM | 24.4 µM
2 | O=C1c2ccccc2-c2c1c1ccccc1c(=O)n2CCCNCCCn1c2c(c3ccccc3c1=O)C(=O)c1ccccc1-2 | 22.7 | > 50 µM | 2.08 µM | 5.52 | 2.9 µM | 9.65 µM | 10.2 | 25.7 µM | 9.15 | 30.4 µM | 3.94 µM | 17.3 µM | 3.04 µM | 6.08 µM | 4.42 | 13.9 µM | 12.6 µM | > 50 µM | 6.82 µM | 17.7 µM
3 | CC1=C(C)C(=O)c2c(c(C(=O)c3ccccc3)c3nc4ccccc4n3c2C)C1=O | 47.8 | > 100 µM | > 100 µM | > 100 | > 100 µM | > 100 µM | 95 | > 100 µM | > 100 | > 100 µM | > 100 µM | > 100 µM | > 100 µM | > 100 µM | > 100 | > 100 µM | > 100 µM | > 100 µM | > 100 µM | > 100 µM
4 | O=[N+]([O-])c1ccc(N2CCN(Cc3ccccc3)CC2)c2c1no[n+]2[O-] | 2.22 | 4.76 µM | 1.25 µM | 2.7 | 1.48 µM | 3.05 µM | 1.68 | 3.86 µM | 1.8 | 3.52 µM | 2.27 µM | 12.3 µM | 4.15 µM | 8.77 µM | 1.57 | 3.46 µM | 0.155 µM | 2.49 µM | 1.78 µM | 3.33 µM
5 | CN(C)CCCCN1CCc2c(n(C)c3ccccc23)C1=O | – | 50.2 µM and 35.9 µM | 33 µM and > 68.7 µM | > 100 | – | > 92.7 µM | – | 28.7 µM and 31.4 µM | – | 36.8 µM and 34 µM | – | > 100 µM | 54.1 µM and 24.2 µM | > 78.6 µM and 67.3 µM | – | > 80.5 µM | – | > 100 µM | 39.7 µM and 15.9 µM | 64.3 µM and 30.3 µM
6 | CC(C)(C)[Si](C)(C)OCC1CCC(n2cnc3c(NC(=O)c4ccccc4)ncnc32)O1 (centres undefined) | – | 45.6 µM | – | 52.6 | – | 31.3 µM | – | 33.4 µM | – | 30.3 µM | – | 33.4 µM | – | 32.3 µM | – | 34.6 µM | – | 47.1 µM | – | 36.2 µM
7 | CN1CCN(Cc2ccc(-c3cc4ncnc(Nc5ccc(OCc6cccc(F)c6)c(Cl)c5)c4s3)o2)CC1 | 5.33 | 10.2 µM | 4.13 µM | 8.17 | 4.44 µM | 8.19 µM | 4.26 | 8.37 µM | 4.63 | 8.81 µM | 4.32 µM | 9.32 µM | 3.91 µM | 7.8 µM | 4.39 | 10.4 µM | 3.81 µM | 9.18 µM | 4.24 µM | 7.99 µM
8 | Cc1[nH]c(=O)[nH]c(=O)c1N(CCF)CCCl | 239 | 447 µM and 832 µM and 808 µM | – | 954 | 280 µM and 508 µM | 824 µM and 1330 µM and 719 µM | 228 | 465 µM and 1070 µM and 855 µM | – | 767 µM | 443 µM and 206 µM | 820 µM and 1130 µM and 1090 µM | 329 µM and 400 µM | 676 µM and 976 µM and 1200 µM | 249 | 584 µM and 1960 µM and 1390 µM | 96 µM and 48.4 µM | 796 µM and 626 µM and 791 µM | 220 µM | 606 µM and 668 µM and 751 µM
9 | CCN1C(=O)C/C(=C\C(C)=O)Nc2ccccc21 | – | > 100 µM | > 100 µM | > 100 | – | > 100 µM | > 100 | > 100 µM | – | > 100 µM | > 100 µM | > 100 µM | – | > 100 µM | – | > 100 µM | – | > 100 µM | – | > 100 µM
10 | CNc1ccccc1C(=O)N/N=C/C=C/c1ccccc1 | 0.733 | 78.2 µM | 2.56 µM | > 100 | 0.547 µM | 50.5 µM | 11.4 | 72.1 µM | 0.6 | 24.8 µM | 0.568 µM | > 100 µM | 6.64 µM | > 76.5 µM | 10 | > 100 µM | 2.39 µM | 97 µM | 8.82 µM | 36.3 µM
11 | CC/C=C\C[C@H](O)C/C=C1/C(=O)C=C[C@@H]1C/C=C\CCCC(=O)NC(C)C | 2.52 | 6.88 µM | 2.52 µM | 6.24 | 1.91 µM | 4.89 µM | 2.17 | 6.22 µM | 2.87 | 10 µM | 3.28 µM | 13.6 µM | 4.55 µM | 16.6 µM | 2.31 | 4.74 µM | 2.09 µM | 8.38 µM | 1.87 µM | 3.42 µM
12 | CCn1c(=O)c(-c2ccn[nH]2)cc2c(C)nc(N)nc21 | 2.25 | 9.58 µM | 0.397 µM | > 100 | 3.3 µM | > 100 µM | 1.38 | 6.24 µM | 1.23 | 30.6 µM | 1.4 µM | > 100 µM | 0.539 µM | 10.6 µM | 2.41 | > 100 µM | 1.68 µM | > 100 µM | 5.03 µM | > 100 µM
13 | C=C1C(=O)O[C@H]2[C@H]1CC/C(COC(=O)C(=O)c1c[nH]c3ccccc13)=C\CC[C@@]1(C)O[C@@H]21 | 1.63 | 3.78 µM | 2.13 µM | 4.37 | 3.28 µM | 13.4 µM | 1.64 | 3.53 µM | 2 | 5.19 µM | 3.92 µM | 19.4 µM | 2.35 µM | 6.42 µM | 1.98 | 3.89 µM | 1.27 µM | 13.1 µM | 1.95 µM | 4.02 µM
14 | COc1cccc(-c2nn(-c3ccccc3)cc2-c2ccnc(NCCNS(=O)(=O)c3ccc(Cl)cc3)c2)c1 | 3.84 | 26.9 µM | 2.44 µM | > 100 | 3.72 µM | > 100 µM | 7.03 | 44.9 µM | 4.15 | > 100 µM | 4.29 µM | > 100 µM | > 100 µM | > 100 µM | 7.21 | > 100 µM | 3.47 µM | > 100 µM | 4.26 µM | > 100 µM
15 | Cc1ccc(NC(c2ccccc2)c2ccc3cccnc3c2O)cc1 (centres undefined) | – | 21 µM | – | 14.3 | – | 19.1 µM | – | 25.8 µM | – | 19 µM | – | 15.2 µM | – | 22.2 µM | – | 8.4 µM | – | 4.27 µM | – | > 100 µM
